Measurements: patent US20260216093A1, “COMPOSITIONS AND METHODS FOR ENHANCED DRUG LOADING INTO LIPID-BASED CARRIERS” (UNIVERSITY OF NOTRE DAME DU LAC, priority 2023, published 2026)

How the values were obtained:
[1] = tested on: Human hepatocellular carcinoma cells (HepG2); assay: CCK-8 cell proliferation assay with Exo-Dox; assay type: cell-based; settings: 24 h
Method: (§1) Cell viability was assessed using a Cell Counting Kit-8 (CCK-8 assay, Enzo). In brief, 3T3 and HepG2 cells were seeded into a 96-well flat culture plate (Corning). After being cultured overnight, the cells were washed with FBS-free EMEM and incubated with a specific concentration of sEV and exosomal relative in FBS-free medium at 37° C. for 12, 24, 36, or 48 h. The cells were then washed three times with sterilized PBS and incubated with fresh medium containing 10% FBS overnight. The cells were then washed with PBS, and FBS-free EMEM […] before adding assay reagent. After incubation for 20 min at 37° C., the cell proliferation and cytotoxicity were measured by absorbance at 460 nm. The background was measured by 3T3 and HepG2 cells cultured in FBS-free EMEM only.
(§2) The ability of Exo-Dox to inhibit cancer cell proliferation in vitro was then analyzed. Human hepatocellular carcinoma cells (HepG2) and cervical carcinoma cells (Hela) were treated with Exo-Dox for 24 h, while cells without treatment, treated with control sEVs, and D-Cys-GQDs mixed with free Dox are negative controls. Cell viability of all samples was measured by CCK-8 assay. […] Dox-loaded sEVs by sonication method were not included in the cell viability tests due to low yield of loaded sEVs that was caused by the damage of physical structure of sEVs by sonication (FIG. 17A-B).

[2] = tested on: cervical carcinoma cells (Hela); assay: CCK-8 cell proliferation assay with Exo-Dox; assay type: cell-based, human; settings: 24 h
Method: as §1, §2

tau fibrils = tau fibrils (Homo sapiens, UniProt P10636); assay: Tau biosensor seeding (propagation) assay; assay type: cell-based; settings: inhibitors added 1 h after tau fibrils; D-GQDs 0.1-0.8 μM, Qal:D-GQDs 10:1, 6:1, 3:1; bare Qal 1.5 μM to 9 μM
Method: To study the effect of Qal-D-GQD-Exo on tau propagation, a tau biosensor seeding assay (FIG. 35) was used to investigate whether the Qal-D-GQD-Exo could block the cellular transmission of exogeneous mature tau fibrils using three different ratios of Qal to D-GQDs (10:1, 6:1, and 3:1) and concentrations of D-GQDs at 0.8, 0.4, 0.2, and 0.1 μM.

tau fibrils, sequence (P10636 whole entry): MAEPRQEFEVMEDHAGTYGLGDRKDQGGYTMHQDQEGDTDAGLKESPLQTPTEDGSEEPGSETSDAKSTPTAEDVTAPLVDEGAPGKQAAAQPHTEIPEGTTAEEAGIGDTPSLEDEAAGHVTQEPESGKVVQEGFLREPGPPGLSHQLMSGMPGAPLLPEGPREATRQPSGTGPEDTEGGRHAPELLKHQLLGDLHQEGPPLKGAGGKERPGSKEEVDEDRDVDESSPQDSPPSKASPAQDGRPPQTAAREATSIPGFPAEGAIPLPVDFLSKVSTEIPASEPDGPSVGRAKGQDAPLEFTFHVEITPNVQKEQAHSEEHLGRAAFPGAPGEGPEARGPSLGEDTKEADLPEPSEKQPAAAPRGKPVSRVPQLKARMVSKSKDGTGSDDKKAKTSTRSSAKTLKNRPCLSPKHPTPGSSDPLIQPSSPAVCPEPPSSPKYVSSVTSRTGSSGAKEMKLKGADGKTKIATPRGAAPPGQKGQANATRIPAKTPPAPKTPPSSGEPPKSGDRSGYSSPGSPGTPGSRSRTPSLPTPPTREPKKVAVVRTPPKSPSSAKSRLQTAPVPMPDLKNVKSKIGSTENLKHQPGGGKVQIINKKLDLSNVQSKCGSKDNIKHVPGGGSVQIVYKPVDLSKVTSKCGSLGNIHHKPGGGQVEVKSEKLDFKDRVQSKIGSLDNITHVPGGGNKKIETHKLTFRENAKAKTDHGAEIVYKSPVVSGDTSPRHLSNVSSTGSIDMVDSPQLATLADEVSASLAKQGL

Compound: COc1cccc2c1C(=O)c1c(O)c3c(c(O)c1C2=O)C[C@@](O)(C(=O)CO)C[C@@H]3O[C@H]1C[C@H](N)[C@H](O)[C@H](C)O1 [free Dox, Doxorubicin]
- inhibition of cell proliferation [1]: 28.3±5.2%
- inhibition of cell proliferation [2]: 27.7±5.0%

Compound: Qal: tau-specific N-amino peptide (NAP), amino acid sequence CGTHKLTFRASHAVQIVYKGC (SEQ ID NO: 2)
- inhibition of intracellular tau aggregation, at most (tau fibrils): did not show any inhibitory efficiency
